Experimental data: patent US11897862B2 (Gilead Sciences, Inc., priority 2022, dated 2024)

Tests used:
Format in all cases: cell-based
IKZF1 = molecular target: T1, IKZF1 (Homo sapiens, UniProt Q13422+Q96SW2); assay: HEK293 HiBiT in vitro degradation of IKZF1; settings: for DC50 / IKZF1 Dmax: HEK293 HiBiT; for DC50: 18-24 hr incubation, normalized to DMSO control, read-out: IKZF1 EC50; for IKZF1 Dmax / Dmax: maximum degradation at the highest concentration tested; for Dmax: HEK293, HEK293 HiBiT
T1 construct: expressed in transfected cells
Summary of the method: (§1)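 Flp-In T-REx HEK293 stable pools carry a single integrated copy of C-terminal HiBiT-tagged IKZF1, IKZF2 or SALL4 under a tetracycline operator, induced overnight at 37 °C with doxycycline ([…] final). Cells were then treated with serially diluted compounds for 18-24 h. Nano-Glo lytic luminescence gave EC50 and Dmax.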

SALL4 = molecular target: T2, SALL4 (Homo sapiens, UniProt Q96SW2+Q9UJQ4); assay: HEK293 HiBiT in vitro degradation of SALL4; settings: 18-24 hr incubation, normalized to DMSO control, read-out: SALL4 EC50
T2 construct: expressed in transfected cells
Description: In vitro degradation of IKZF1, IKZF2, and SALL4 was measured using HiBiT protein tagging and detection technology (Promega).
HiBit technology was used to develop the quantitative assays to measure the cellular IKZFs level by tagging an 11 amino acid HiBit peptides […] to the protein of interest. Reporter plasmids were generated by fusing a linker sequence ([…]) followed by the HiBit tag at the C-terminus of IKZF1, IKZF2, and SALL4. The fusion fragments were subsequently cloned into pcDNA5 pcDNA™5/FRT/TO plasmids (Thermo Fisher, cat #V652020) downstream of the tetracycline operator. The resulting plasmids were co-transfected with pOG44 Flp-Recombinase Expression Vector (Thermo Fisher, cat #V600520) into Flp-In™ T-REx HEK293 line (Thermo Fisher, cat #R78077) and a stable cell pool was selected by adding 100 µg/ml of Hygromycin (Thermo Fisher, cat #10687010). The reporter cell enabled Tet-On inducible reporter expression from a single copy of the integrated gene.
On Day 1, Cells were grown to ˜80% confluency in tissue culture medium (DMEM Glutamax (Gibco10569), 10% Tet free FBS (Takara 631106), and PenStrep Glutamin (Gibco 10378)) in tissue culture flasks. Doxycycline was then added to a final concentration of […] to induce reporter expression at 37° C. overnight.
On Day 2, 125 nL of serially-diluted solution of testing compounds were dispensed into 384-well white solid assay plates via ECHO acoustic liquid handler. Cells were lifted by 0.25% Trypsin (Gibco 25200) then pelleted by centrifugation (Beckman Avanti J-E) at 500×g for 5 min. Cell pellets were resuspended in TC medium at the concentration of 3e5/mL and 25 μL of cell suspension were added into each well of compound-spotted plates. The plates were returned to a 37° C. incubator overnight (18-24 hr).
On Day 3, assay plates were removed from the tissue culture incubator and 25 μL of Nano-Glo lytic detection system (Promega, cat #N3030) was added to each well. Plates were incubated at r.t. for 3 min with shaking, and luminescence was read using an Envision reader (Perkin Elmer).
To assess the IKZF1, IKZF2, and SALL4 degrader potential of exemplified compounds of this disclosure and certain Reference Compounds EC50 and Dmax values were determined for the compounds of Examples 1 to 383 and Reference Compounds A-1, B-1, B-2, B-3, B-4, and C-1 in the HiBiT assays. Asterisks (*) indicate examples for which the data shown represents an average of n≥3.

IKZF2 [1] = molecular target: T3, IKZF2 (Homo sapiens, UniProt Q96SW2+Q9UKS7); assay: HEK293 HiBiT in vitro degradation of IKZF2; design: expressed in transfected cells; settings: for DC50 / IKZF2 Dmax: HEK293 HiBiT; for DC50: 18-24 hr incubation, normalized to DMSO control, read-out: IKZF2 EC50; for IKZF2 Dmax / Dmax: maximum degradation at the highest concentration tested; for Dmax: HEK293, HEK293 HiBiT
Summary of the method: as §1
Target sequence in this assay (Q9UKS7 1-500 isoform Q9UKS7-2): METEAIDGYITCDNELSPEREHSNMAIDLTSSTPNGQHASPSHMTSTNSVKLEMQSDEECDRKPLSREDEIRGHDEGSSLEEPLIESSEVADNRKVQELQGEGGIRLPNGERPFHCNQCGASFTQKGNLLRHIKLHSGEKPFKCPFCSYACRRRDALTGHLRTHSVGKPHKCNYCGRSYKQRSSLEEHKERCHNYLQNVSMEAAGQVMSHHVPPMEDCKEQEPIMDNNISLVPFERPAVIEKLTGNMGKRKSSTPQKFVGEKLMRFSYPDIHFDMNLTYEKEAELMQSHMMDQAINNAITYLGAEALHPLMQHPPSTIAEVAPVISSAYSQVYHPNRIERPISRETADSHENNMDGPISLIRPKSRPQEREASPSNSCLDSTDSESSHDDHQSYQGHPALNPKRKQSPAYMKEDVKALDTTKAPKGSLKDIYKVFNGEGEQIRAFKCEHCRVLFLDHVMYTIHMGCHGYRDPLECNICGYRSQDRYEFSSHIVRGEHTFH
Target sequence in this assay (Q96SW2 whole entry): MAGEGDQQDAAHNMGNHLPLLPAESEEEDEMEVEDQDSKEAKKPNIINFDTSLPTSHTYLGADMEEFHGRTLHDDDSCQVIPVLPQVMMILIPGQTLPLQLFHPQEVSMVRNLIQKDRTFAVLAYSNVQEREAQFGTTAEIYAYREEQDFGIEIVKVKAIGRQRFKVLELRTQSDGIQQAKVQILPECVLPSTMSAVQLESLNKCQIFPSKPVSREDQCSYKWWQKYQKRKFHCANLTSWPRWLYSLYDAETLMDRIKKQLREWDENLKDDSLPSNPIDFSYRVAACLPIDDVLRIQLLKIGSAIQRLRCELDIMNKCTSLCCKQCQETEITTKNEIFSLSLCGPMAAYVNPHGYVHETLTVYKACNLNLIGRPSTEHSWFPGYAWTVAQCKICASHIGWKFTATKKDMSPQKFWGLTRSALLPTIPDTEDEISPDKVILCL
Target sequence in this assay (Q16531 whole entry partner): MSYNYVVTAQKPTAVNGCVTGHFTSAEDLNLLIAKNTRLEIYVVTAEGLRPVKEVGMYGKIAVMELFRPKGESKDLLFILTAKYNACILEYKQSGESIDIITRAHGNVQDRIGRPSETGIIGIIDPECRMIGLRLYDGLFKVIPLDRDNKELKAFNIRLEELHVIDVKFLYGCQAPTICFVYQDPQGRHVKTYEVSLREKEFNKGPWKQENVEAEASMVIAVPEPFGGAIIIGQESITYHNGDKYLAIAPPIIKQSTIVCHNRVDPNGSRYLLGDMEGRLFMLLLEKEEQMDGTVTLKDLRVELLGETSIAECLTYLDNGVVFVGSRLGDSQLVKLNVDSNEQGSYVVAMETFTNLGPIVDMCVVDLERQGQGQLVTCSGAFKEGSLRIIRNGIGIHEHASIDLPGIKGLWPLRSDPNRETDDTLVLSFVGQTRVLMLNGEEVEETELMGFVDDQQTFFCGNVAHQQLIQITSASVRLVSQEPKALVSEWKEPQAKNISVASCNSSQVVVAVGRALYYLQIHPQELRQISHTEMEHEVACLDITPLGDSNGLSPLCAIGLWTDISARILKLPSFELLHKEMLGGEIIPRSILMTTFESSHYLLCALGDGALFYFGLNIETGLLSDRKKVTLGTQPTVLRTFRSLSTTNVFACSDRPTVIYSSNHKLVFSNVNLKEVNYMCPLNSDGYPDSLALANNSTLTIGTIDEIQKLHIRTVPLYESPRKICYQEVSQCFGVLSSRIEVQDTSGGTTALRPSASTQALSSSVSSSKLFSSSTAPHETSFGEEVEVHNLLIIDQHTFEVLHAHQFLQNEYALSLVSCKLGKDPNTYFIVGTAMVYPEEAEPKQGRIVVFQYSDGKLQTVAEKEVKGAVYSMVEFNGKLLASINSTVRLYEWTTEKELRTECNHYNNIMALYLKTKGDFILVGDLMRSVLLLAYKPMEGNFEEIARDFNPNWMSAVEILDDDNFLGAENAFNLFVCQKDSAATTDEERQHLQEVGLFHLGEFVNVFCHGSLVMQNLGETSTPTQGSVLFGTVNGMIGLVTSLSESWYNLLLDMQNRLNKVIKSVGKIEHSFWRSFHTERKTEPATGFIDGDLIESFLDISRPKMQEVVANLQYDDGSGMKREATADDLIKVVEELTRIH

IKZF2 [2] = molecular target: T3, IKZF2; assay: Human whole blood IKZF2 degradation (flow cytometry, CD4/CD25/Foxp3+ Treg cells); design: endogenous in cells; settings: 24 hrs incubation, IKZF2 MFI in CD4/CD25/Foxp3+ Treg cells, flow cytometry; for DC50: read-out: IKZF2 EC50
Description: In vitro IKZF2 potency was assessed in human whole blood using a fluorescence activated cell sorting assay. 50 μL of freshly collected blood from healthy human volunteers was incubated with Immunocult CD3/CD28 activator (Stemcell Technologies) and solution of testing compounds (serially-diluted) for 24 hrs hours at 37° C. in 384 well plates. The treated red blood cells were removed by adding lysis buffer (BD cat #558049) then the cells were fixed, permeabilized, and stained with anti-CD4 (BD cat #564419), anti-Foxp3 (Invitrogen cat #48-4777-42), anti-IKZF1 (Cell Signaling Tech. cat #33462S), and anti-IKZF2(Cell Signaling Tech. cat #65432S) antibodies. The median fluorescent intensity (MFI) of IKZF2 signal from CD4/CD25/Foxp3+ Treg cells and MFI of IKZF1 signal from CD4+ T cells were quantified in the same samples by flow cytometry using an Attune instrument. EC50 and Dmax of each compound was determined by plotting the MFI and DMSO treated wells were used as control. Asterisks (*) indicate examples for which data represents an average of n≥3 repeat experiments.
Target sequence in this assay (Q9UKS7 whole entry): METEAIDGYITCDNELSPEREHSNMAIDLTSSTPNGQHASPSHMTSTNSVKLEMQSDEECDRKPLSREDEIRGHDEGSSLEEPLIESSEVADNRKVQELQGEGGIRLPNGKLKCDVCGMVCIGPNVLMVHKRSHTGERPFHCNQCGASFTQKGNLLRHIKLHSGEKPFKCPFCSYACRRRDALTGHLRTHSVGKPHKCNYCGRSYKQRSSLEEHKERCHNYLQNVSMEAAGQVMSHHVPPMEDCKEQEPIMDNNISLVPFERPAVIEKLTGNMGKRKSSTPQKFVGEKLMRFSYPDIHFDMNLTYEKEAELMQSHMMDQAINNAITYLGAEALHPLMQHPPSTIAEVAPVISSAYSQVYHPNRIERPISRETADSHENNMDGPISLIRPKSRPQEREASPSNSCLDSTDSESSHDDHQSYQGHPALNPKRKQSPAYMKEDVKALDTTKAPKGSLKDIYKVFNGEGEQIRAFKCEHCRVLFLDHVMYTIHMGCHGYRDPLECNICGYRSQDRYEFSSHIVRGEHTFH
Target sequence in this assay (Q96SW2 whole entry): as the sequence (Q96SW2 whole entry) above
Target sequence in this assay (Q16531 whole entry partner): as the sequence (Q16531 whole entry partner) above

T1 sequence (Q13422 whole entry): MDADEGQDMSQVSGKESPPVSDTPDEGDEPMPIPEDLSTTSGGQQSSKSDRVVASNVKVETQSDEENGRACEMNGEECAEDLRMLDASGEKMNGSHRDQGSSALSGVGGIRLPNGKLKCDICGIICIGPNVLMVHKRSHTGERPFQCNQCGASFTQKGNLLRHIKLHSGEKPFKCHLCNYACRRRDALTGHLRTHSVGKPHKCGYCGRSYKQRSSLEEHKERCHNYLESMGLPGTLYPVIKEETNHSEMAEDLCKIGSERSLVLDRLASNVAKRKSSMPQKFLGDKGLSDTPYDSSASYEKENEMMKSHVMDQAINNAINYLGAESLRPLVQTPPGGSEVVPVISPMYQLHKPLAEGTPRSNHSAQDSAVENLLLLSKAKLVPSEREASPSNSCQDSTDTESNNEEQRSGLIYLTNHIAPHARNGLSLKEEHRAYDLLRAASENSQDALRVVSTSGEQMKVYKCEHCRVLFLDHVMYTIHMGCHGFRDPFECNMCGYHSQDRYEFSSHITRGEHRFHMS
T1 sequence (Q96SW2 whole entry): as the sequence (Q96SW2 whole entry) above
T1 sequence (Q16531 whole entry partner): as the sequence (Q16531 whole entry partner) above
T2 sequence (Q9UJQ4 whole entry): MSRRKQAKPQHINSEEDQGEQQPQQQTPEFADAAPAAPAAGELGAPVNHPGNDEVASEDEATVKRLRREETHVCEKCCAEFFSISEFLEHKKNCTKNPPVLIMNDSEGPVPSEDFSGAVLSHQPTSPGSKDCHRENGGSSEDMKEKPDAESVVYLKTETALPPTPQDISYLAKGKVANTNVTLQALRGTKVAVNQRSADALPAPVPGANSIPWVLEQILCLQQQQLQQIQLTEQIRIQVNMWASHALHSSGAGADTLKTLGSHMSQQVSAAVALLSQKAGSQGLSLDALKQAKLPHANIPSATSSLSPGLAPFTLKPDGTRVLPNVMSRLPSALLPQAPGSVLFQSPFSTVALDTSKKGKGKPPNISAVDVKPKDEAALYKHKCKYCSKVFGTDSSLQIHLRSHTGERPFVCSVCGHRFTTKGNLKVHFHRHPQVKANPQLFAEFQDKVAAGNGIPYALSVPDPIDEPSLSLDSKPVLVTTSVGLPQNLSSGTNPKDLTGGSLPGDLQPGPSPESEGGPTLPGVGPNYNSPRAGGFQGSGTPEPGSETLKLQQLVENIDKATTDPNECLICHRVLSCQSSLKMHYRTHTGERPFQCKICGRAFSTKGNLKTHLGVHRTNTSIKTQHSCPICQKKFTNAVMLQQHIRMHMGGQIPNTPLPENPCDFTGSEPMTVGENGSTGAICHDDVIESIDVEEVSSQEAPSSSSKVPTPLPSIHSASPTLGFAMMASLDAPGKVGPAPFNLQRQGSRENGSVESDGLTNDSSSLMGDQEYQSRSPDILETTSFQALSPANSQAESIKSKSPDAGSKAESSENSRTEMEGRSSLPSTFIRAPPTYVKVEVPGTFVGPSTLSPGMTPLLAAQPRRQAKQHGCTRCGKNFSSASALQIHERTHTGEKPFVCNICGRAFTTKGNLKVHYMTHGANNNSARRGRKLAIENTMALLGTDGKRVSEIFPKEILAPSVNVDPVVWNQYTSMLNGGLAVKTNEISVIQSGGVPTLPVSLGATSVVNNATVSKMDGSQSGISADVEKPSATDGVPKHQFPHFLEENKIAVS
T2 sequence (Q96SW2 whole entry): as the sequence (Q96SW2 whole entry) above
T2 sequence (Q16531 whole entry partner): as the sequence (Q16531 whole entry partner) above

Structure (SMILES) | DC50 (IKZF1) [nM] | DC50 (SALL4) [nM] | DC50 (IKZF2 [1]) [nM] | IKZF2 Dmax (IKZF2 [1]) [%] | IKZF1 Dmax (IKZF1) [%] | IKZF2 Dmax (IKZF2 [2]) [%] | DC50 (IKZF2 [2]) [nM] | Dmax (IKZF1) [%] | Dmax (IKZF2 [2]) [%] | Dmax (IKZF2 [1]) [%]
COCC1CCC(N[C@H]2CCCO[C@@H]2Cc2ccc3c(c2F)CN(C2CCC(=O)NC2=O)C3=O)CC1 (single isomer, unassigned) [Example 265] | > 1000 | > 10000 | 3 | 96 |  |  |  |  |  | 
CC1(C)CC(N[C@H]2CCCC[C@@H]2Cc2ccc3c(c2)CN(C2CCC(=O)NC2=O)C3=O)CCO1 (some centres unmarked) [Example 110] | 163 |  | 5 | 96 | 32 | 98 | 3 |  |  | 
O=C1CCC(N2Cc3c(ccc(C[C@H]4CCCC[C@@H]4NCC4COC4)c3F)C2=O)C(=O)N1 (some centres unmarked) [Example 114] | 88 |  | 8 |  |  |  | 5 | 28 | 98 | 98
O=C1CCC(N2Cc3c(ccc(C[C@H]4CCCC[C@@H]4NCC4CCOCC4)c3F)C2=O)C(=O)N1 (some centres unmarked) [Example 115] | 78 |  | 8 |  |  |  | 6 | 37 | 90 | 96
O=C1CCC(N2Cc3c(ccc(C[C@H]4CCCC[C@@H]4NC4CCOC4)c3F)C2=O)C(=O)N1 (some centres unmarked) [Example 117] | 39 |  | 2 |  |  |  | 1 | 46 | 92 | 97
O=C1CCC(N2Cc3c(ccc(C[C@H]4CCCC[C@@H]4NC4CCOC4)c3F)C2=O)C(=O)N1 (some centres unmarked) [Example 118] | 57 |  | 2 | 97 | 44 | 91 | 1 |  |  | 
[2H]C1(N[C@H]2CCCC[C@@H]2Cc2ccc3c(c2)CN(C2CCC(=O)NC2=O)C3=O)CCC(F)(F)CC1 (some centres unmarked) [Example 119] | 46 |  | 2 |  |  |  | 2 | 54 | 92 | 98
CN(C1CCC(F)(F)CC1)[C@H]1CCCC[C@@H]1Cc1ccc2c(c1F)CN(C1CCC(=O)NC1=O)C2=O (some centres unmarked) [Example 124] | > 10000 |  | 16 |  |  |  | 23 |  | 91 | 94
O=C1CCC(N2Cc3cc(C[C@H]4CCCC[C@@H]4NC4CC5(CCOCC5)C4)ccc3C2=O)C(=O)N1 (some centres unmarked) [Example 125] | 126 |  | 17 |  |  |  | 3 | 26 | 91 | 96
CC(C)CCN[C@H]1CCCC[C@@H]1Cc1ccc2c(c1)CN(C1CCC(=O)NC1=O)C2=O (some centres unmarked) [Example 129] | 93 |  | 13 |  |  |  | 9 | 25 | 91 | 95
CC(N[C@H]1CCCC[C@@H]1Cc1ccc2c(c1)CN(C1CCC(=O)NC1=O)C2=O)C12CC(C1)C2 (some centres unmarked) [Example 138] | > 1000 |  | 4 |  |  |  | 3 |  | 96 | 98
O=C1CCC(N2Cc3cc(C[C@H]4CCCC[C@@H]4NC4CC5(CCC(F)(F)CC5)C4)ccc3C2=O)C(=O)N1 (some centres unmarked) [Example 142] | 74 |  | 5 |  |  |  | 5 | 33 | 94 | 95
O=C1CCC(N2Cc3c(ccc(C[C@H]4OCCC[C@@H]4NC4CCCC4)c3F)C2=O)C(=O)N1 (some centres unmarked) [Example 148] | > 1000 |  | 7 |  |  |  | 6 |  | 92 | 94
C[C@]1(O)CC[C@H](NC2CCC(F)(F)CC2)[C@@H](Cc2ccc3c(c2)CN(C2CCC(=O)NC2=O)C3=O)C1 (some centres unmarked) [Example 155] | 226 |  | 30 |  |  |  | 12 | 27 | 91 | 97
COC1CCC(N[C@H]2CCCO[C@@H]2Cc2ccc3c(c2F)CN(C2CCC(=O)NC2=O)C3=O)CC1 (some centres unmarked) [Example 159] | > 1000 |  | 6 |  |  |  | 5 |  | 94 | 100
O=C1CCC(N2Cc3cc(C[C@H]4CCCC[C@@H]4NC4CCCCCC4)ccc3C2=O)C(=O)N1 (some centres unmarked) [Example 196] | 60 |  | 3 |  |  |  | 3 | 23 | 98 | 97
CC(N[C@H]1CCCC[C@@H]1Cc1ccc2c(c1)CN(C1CCC(=O)NC1=O)C2=O)C1(C)CCC1 (some centres unmarked) [Example 206] | > 1000 |  | 6 |  |  |  | 10 |  | 101 | 95
CC1(C)CC(N[C@H]2CCCC[C@@H]2Cc2ccc3c(c2)CN(C2CCC(=O)NC2=O)C3=O)CC(C)(C)O1 (some centres unmarked) [Example 208] | 76 |  | 2 |  |  |  | 3 | 26 | 97 | 98
[2H]C1(N[C@H]2CCCC[C@@H]2Cc2ccc3c(c2)CN(C2CCC(=O)NC2=O)C3=O)CC(C)(C)C1 (some centres unmarked) [Example 214] | 65 |  | 5 |  |  |  | 3 | 22 | 98 | 96
O=C1CCC(N2Cc3cc(C[C@H]4CCCC[C@@H]4NC4CCC(C(F)F)CC4)ccc3C2=O)C(=O)N1 (some centres unmarked) [Example 217] | 85 |  | 3 | 97 | 44 |  | 2 |  | 89 | 
CC(N[C@H]1CCCC[C@@H]1Cc1ccc2c(c1)CN(C1CCC(=O)NC1=O)C2=O)C1CCC1 (some centres unmarked) [Example 219] | > 1000 |  | 6 | 95 |  | 97 | 10 |  |  | 
CC(CC(C)(C)C)N[C@H]1CCCC[C@@H]1Cc1ccc2c(c1)CN(C1CCC(=O)NC1=O)C2=O (some centres unmarked) [Example 220] | > 1000 |  | 2 | 96 |  |  | 3 |  | 98 | 
CC(CC(C)(C)C)N[C@H]1CCCC[C@@H]1Cc1ccc2c(c1)CN(C1CCC(=O)NC1=O)C2=O (some centres unmarked) [Example 221] | > 1000 |  | 2 | 98 |  | 101 | 4 |  |  | 
CC1(C)CC(N[C@H]2CCCO[C@@H]2Cc2ccc3c(c2F)CN(C2CCC(=O)NC2=O)C3=O)CCO1 (some centres unmarked) [Example 222] | > 1000 |  | 18 |  |  |  | 6 |  | 95 | 96
CC1(C)CC(N[C@H]2CCCO[C@@H]2Cc2ccc3c(c2F)CN(C2CCC(=O)NC2=O)C3=O)CCO1 (some centres unmarked) [Example 223] | > 1000 |  | 12 | 96 |  | 95 | 3 |  |  | 
O=C1CCC(N2Cc3c(ccc(C[C@H]4OCCC[C@@H]4NC4CCOCC4)c3F)C2=O)C(=O)N1 (some centres unmarked) [Example 305] | > 1000 |  | 14 |  |  |  | 4 |  | 95 | 96
